The subject of experiment [1] is NIH3T3TA/IH/MR cells. Nature of the experiment: Anchorage independent growth in soft agar. The experiment is classed as cell-based, murine. Particulars: +E2 1 μM, two weeks after treatment. How it is done:
Assay for anchorage independent growth. Anchorage-independent growth capability was determined by assessing the colony-formation efficiency of cells suspended in soft agar. 1×10^3 cells were seeded in 50 μl of 0.3% overlay agar in microtiter plates coated with 50 μl 0.6% underlay agar. The induction medium was added to the top (50 μl/well). […] To determine wether IRF-1 reverses the transformed phenotype of the cells to the formation of colonies in soft agar was assayed. […] In contrast, in the absence of Doxycycline (transformed status) the cells grew well and formed soft agar clones. The ability of soft agar growth was completely abolished by the activation of IRF-1 by E2 gift (Table 3).

Experiment [2] has as its system NIH3T3TA/IH/MR cells. The experiment can be described thus: IFN secretion by antiviral assay. As to conditions: +E2 1 μM, five days, normalized to 10^6 cells. The experiment is classed as cell-based, murine. On the procedure: (§1) IFN-Test. The interferon concentrations in the cell culture supernatants were determined by an antiviral assay imploying mouse L929 cells (43). To confirm the specificity of the antiviral activity a neutralizing monoclonal antibody directed against mouse IFN-β was added to the supernatant before addition to the test cells.
IFN secretion as determined by an antiviral assay was taken as a measure of IRF-1 activity.

The test system of a further experiment is HepaIRF-1hER cell clones. The experiment can be described thus: IFN secretion measured by antiviral assay in culture supernatant. The experiment is classed as cell-based, murine. Particulars: +E2 1 μM, five days, normalized to 10^6 cells. On the procedure:
For activation of IRF-1 in the IRF-1-hER fusion protein, E2 (SERVA, Frankfurt, Germany) was added to the cell culture medium to reach a final concentration of 1 μM.
as §1

The subject of experiment [3] is Hepa1-6 cell clones expressing IRF-1hER (c4, c9, c22). Nature of the experiment: Cell growth (WST metabolic activity). The experiment is classed as cell-based, murine. Particulars: Mus musculus, Hepa1-6, 168 h, 7 days after IRF-1 activation, 1 μM β-estradiol, read-out: extent of proliferation inhibition. How it is done: (§2) Measurement of cell growth. For determination of cell growth 2×10^3 cells/well were seeded into microtiter plates and serial dilutions (1:1) were performed allowing several independent measurement points. Cells were treated with the indicated concentration of β-estradiol. Cell growth was determined using the WST kit (Roche Diagnostics, Mannheim, Germany) following the manufacturer's instruction. Mean values of triplicates resulting in less than 10% deviation were plotted.

Experiment [4] concerns NIH3T3TA/IH/MR cells. Nature of the experiment: Proliferation (metabolic activity, WST). In kind it is cell-based, murine. Particulars: +E2 1 μM, seven days after treatment. On the procedure:
as §2
The effects of IRF-1 in oncogenically transformed NIH3T3 cells were examined. NIH3T3 cells conditionally expressing the oncogenes c-myc and c-Ha-ras were used. Both oncogenes were bicistrinically expressed under the control of the tetracycline regulatable promoter (Kröger, Dissertation, Universität Braunschweig, 1999). The cells were stably transfected with the IRF-1-hER fusion protein encoding construct. This cell line allows the investigation of IRF-1 effects in the non-transformed NIH3T3 cells (presence of Doxycycline) and in the transformed state of the cells (absense of Doxycycline). The antitumoral activity of IRF-1 in vitro was investigated: Influence on proliferation, soft agar growth and IFN induction with and without IRF-1hER activation by E2 treatment were measured. This was done in the non-transformed as well as in the transformed state. E2 and Doxycyline were added for five days.

Another experiment relates to Hepa1-6 (wt) tumors. The experiment can be described thus: Subcutaneous tumor growth in syngeneic C57L/J mice. As to conditions: 1.5 mg E2 every two days i.p. In kind it is in vivo. The text has this:
(§3) Tumor model. The Hepa1-6 tumor model in C57L/J mice (44) was chosen because they show reliable growth in the syngeneic host. Hepa1-6 cells are a derivative of the BW7756 mouse hepatoma that arose in a C57L mouse. MHC class I and II expression is identical between C57L and C57L/J mice and Hepa1-6 HCCs are characterized by AFP expression. […] After 6 days, tumors were visible and reached a size of about 2000 mm^3 after a mean time of 18 days. This tumor size was used as endpoint in the invention, and mice were subsequently sacrificed. Tumor incidence and volume were assessed every two days using calipers. Data are presented as mean volume±SE.
(§4) Tumor protection studies. C57L/J mice were inoculated with 1×10^7 Hepa1-6 (groups 1 and 2) or HepaIRF-1hER (groups 3 and 4) cells into the right flank. Group 5 was not inoculated with any tumor. The different groups were treated as follows:
(§5) The efficacy of IRF-1 activation as a therapeutic vaccine against tumors was examined. Mice were injected subcutaneosly with HepaIRF-1hER cells in the right flank and wt Hepa1-6 cells into the left flank. The animals were either treated with 1.5 mg E2 every two days or were left untreated. Activation of IRF-1-hER abolished tumor growth of HepaIRF-1hER cells on the right flank of the mice.

A further experiment deals with HepaIRF-1hER tumors. Nature of the experiment: Subcutaneous tumor growth in syngeneic C57L/J mice. The experiment is classed as in vivo.
Text: as §3, §4, §5

Another experiment concerns NIH3T3TA/MR/IH cells. The experiment can be described thus: Tumor growth of transformed cells in nude mice. As to conditions: 1.5 mg E2 every two days i.p.; 10^6 cells s.c. The experiment is classed as in vivo, NMRI nude mice. On the procedure:
Male 6-8-week old NMRI nude mice (Harlan Winkelmann, Borchen, Germany) were maintained in the SPF unit of the animal facility of German Research Center for Biotechnology. Mice were divided into two experimental groups, five mice for each group. 1×10^6 cells in 0.2 ml PBS NIH3T3TA/MR/IH cells were injected subcutaneously into the flanks of the mice. The groups were treated as follows: group 1: no treatment (n=5); group 2: 1.5 mg of E2 every two days i.p. (n=4). Tumor volumes were measured and recorded three times a week using calipers. Data are presented as mean value of tumor volume.

Experimental findings from patent publication US20040116369A1, “Interferon regulatory factor-1/human estrogen receptor fusion protein and its use for treating carcinomas” (priority 2001, published 2004) are described below.

On to `C[C@]12CC[C@@H]3c4ccc(O)cc4CC[C@H]3[C@@H]1CC[C@@H]2O` [E2, β-estradiol], for which the “Soft agar growth (number of clones)” value in the experiment with NIH3T3TA/IH/MR cells [1] (+DOX 2 μg/ml (non-transformed)) and in the experiment on NIH3T3TA/IH/MR cells [1] (−Dox (transformed)) was 0 each time. Besides, the IFN secretion is 750 IU/ml in the experiment on NIH3T3TA/IH/MR cells [2] (+DOX 2 μg/ml); 750 IU/ml in the experiment on NIH3T3TA/IH/MR cells [2] (−Dox); 125 IU/ml in the experiment on HepaIRF-1hER cell clones (clone c4); 125 IU/ml with HepaIRF-1hER cell clones (clone c9); 180 IU/ml in the experiment with HepaIRF-1hER cell clones (clone c22). The inhibition at 1 µM in experiment [3] was 40 to 80%. Further, the Proliferation in the experiment with NIH3T3TA/IH/MR cells [4] (+DOX 2 μg/ml (non-transformed)) is listed as 60%; with NIH3T3TA/IH/MR cells [4] (−Dox (transformed)), 65%. Also, the “Tumor volume (mean ± SD)” value in the experiment with Hepa1-6 (wt) tumors (Hepa1-6 (wt) 5 × 10^6 cells s.c.) is listed as 1630 ± 596 mm^3; in the experiment with Hepa1-6 (wt) tumors (Hepa1-6 tumor on left flank of mice also carrying HepaIH on right flank), 179 ± 288 mm^3; in the experiment on HepaIRF-1hER tumors (HepaIH 5 × 10^6 cells s.c., 1.5 mg E2 every two days i.p.) it was 22,4 ± 179 mm^3. The “mice protected against challenge” value in the experiment with HepaIRF-1hER tumors (HepaIRF-1hER tumor, E2 treatment) amounted to 75%. The “tumor size after 40 days” value in the experiment with HepaIRF-1hER tumors (the two E2 treated animals that developed tumors) was found to be 450 mm^3. Besides, in the experiment with NIH3T3TA/MR/IH cells, the “mice that developed no tumors” value amounted to 40%.
